Consider 31 molecules from patent US10723764B2, “Anti-microbial peptides and methods of use thereof” (priority 2011, dated 2020).

Read-outs that look alike come from different tables or passages of the source. Marks after values point to notes of the source that are not given here. Where a SMILES comes first, the peptide text is derived from it. Where no end group is shown, it is not given here. [ ]: non-standard residue; d: D form.

In one data set the test system is Escherichia coli K12. As to conditions: E. coli K12; Table 5 screen.
Data set [1] concerns methicillin-resistant Staphylococcus aureus USA300 LAC. As to conditions: S. aureus USA300; Table 5 screen.
Protocol: The bacterial strains used in the study are Bacillus subtilis 168, methicillin-resistant Staphylococcus aureus USA300 LAC (Gram-positive), Escherichia coli K12, and Pseudomonas aeruginosa PAO1 (Gram negative). The antibacterial activities of the peptides were determined using the standard broth microdilution method (Wang et al. (2005) J. Biol. Chem., 280:5803-5811). In brief, the bacterial culture (90 μL) was treated with a series of peptide solutions (10 μL), each with two-fold dilution. After overnight incubation at 37° C., the microplate was read on a ChroMate® 4300 Microplate Reader at 630 nm (GMI, Ramsey, Minn.).
(§1) For the initial screen, antimicrobial activities of these peptides against S. aureus and E. coli were evaluated using the standard broth microdilution protocol (Wang, G. (2008) J. Biol. Chem., 283:32637-43).
The antibacterial activities of the peptides were determined using the standard broth microdilution method (Mishra et al. (2012) J. Am. Chem. Soc., 134:12426-12429; Wang et al. (2005) Biol. Chem., 280:5803-5811). Briefly, the bacterial culture was treated with a series of peptide solutions, each with two-fold dilution. After overnight incubation at 37° C., the microplate was read on a ChroMate® 4300 Microplate Reader at 630 nm (GMI, Ramsey, Minn.).
Another data set relates to Gram-positive bacteria. On the set-up: key: Y, Yes; N, No. As to conditions: data from the APD; cited from earlier work.
Another data set deals with Gram-negative bacteria. Also noted: key: Y, Yes; N, No. As to conditions: data from the APD; cited from earlier work.
For another data set, the system named is human erythrocytes. As to conditions: human red blood cells; Table 6. The procedure:
Peptide hemolysis was assayed using an established protocol (Malmsten et al. (2011) PLoS One 6:e16400). In brief, fresh blood, obtained from the UNMC Blood Bank, was washed three times with PBS buffer and made into a 5% solution. To 90 μL of this solution, 10 μL of a peptide solution was added and incubated at 37° C. for one hour. After centrifugation at 13,000 rpm, aliquots of the supernatant were transferred to a fresh 96 well microplate. The absorbance of the solutions was measured at 545 nm to detect the amount of hemoglobin released. The percent lysis was calculated by assuming 100% release when treated with 2% Triton X-100 and no lysis (0%) when treated with PBS buffer. HL50 was the peptide concentration that caused 50% lysis of human erythrocytes. The cell selectivity (CS) indexes were calculated as the ratio of HL50 to the MIC of the peptide against S. aureus USA300.
The hemolytic effects of the six peptides were also compared on human red blood cells (hRBC) using an established protocol (Malmsten et al. (2011) PLoS One 6:e16400). […] A high TI indicates good cell selectivity.
Peptide hemolysis was assayed using an established protocol (Menousek et al. (2012) Int. J. Antimicrob. Agents 39:402-406; Malmsten et al. (2011) PLoS One 6:e16400). Briefly, blood cells were washed three times with phosphate-buffered saline (PBS) and were diluted to a 5% solution. Following peptide treatment, incubation at 37° C. for 1 hour and centrifugation at 13,000 rpm, aliquots of the supernatant were transferred to a fresh 96-well microplate. To assess peptide cytotoxicity, the amount of hemoglobin released was measured at 545 nm. Percent lysis was calculated by assuming 100% release when human blood cells were treated with 2% Triton X-100 and 0% release when they were incubated with PBS buffer.

Another data set addresses chymotrypsin (Bos taurus, UniProt P00766). How it is done: One of the hurdles in developing peptide-based antimicrobials is peptide stability to protease (Wang, G. (2010) Antimicrobial Peptides: Discovery, Design and Novel Therapeutic Strategies, CABI, England). […] This was done by modifying the standard microdilution antimicrobial assays (Wang, G. (2008) J. Biol. Chem., 283:32637-32643). Specifically, the bacterial wells with a high peptide concentration (e.g. 100 μM) are duplicated (e.g., two for antimicrobial assays and two for protease stability assays). As an illustration, chymotrypsin was applied to the duplicated wells at a peptide:protease molar ratio of 25:1. Numerous peptides were screened in this manner.
To identify protease-resistant peptide templates, 30 synthetic peptides were screened (Table 9; Wang et al. (2008) Antimicrob. Agents Chemother., 52:3438-3440). A standard microdilution assay protocol (Li et al. (2006) J. Am. Chem. Soc., 128:5776-5785) was modified to include proteases into the duplicated wells with high concentrations of peptide so that both antimicrobial activity and protease stability could be evaluated simultaneously. […] (peptide:protease molar ratio of 40:1).

[2] abbreviates: antimicrobial assay with chymotrypsin, peptide:protease molar ratio 40:1, E. coli K12 for peptides inactive against S. aureus.
Where [3] appears, read: E. coli K12 growth with chymotrypsin, peptide:protease molar ratio 25:1.

Protocol for Escherichia coli K12: The antibacterial activities of the peptides were determined using the standard broth microdilution method (Wang et al. (2005) J. Biol. Chem., 280:5803-5811). In brief, the bacterial culture (90 μL) was treated with a series of peptide solutions (10 μL), each with two-fold dilution. After overnight incubation at 37° C., the microplate was read on a ChroMate® 4300 Microplate Reader at 630 nm (GMI, Ramsey, Minn.).
as §1

“GNNRPVYIPQPRPPHPRI [Apidaecin IA, reference compound]”: the “MICs (μM) EC” value in the data set on Escherichia coli K12 is over 100 µM. For the same molecule, the “MICs (μM) SA” value in data set [1] was over 100 µM.

On to “Temporin F: temporin, APD ID 98, SEQ ID NO: 15 (FLPLIGKVLSGIL; listed as Rana temporaria)”, for which the “Activity G+ (activity against Gram-positive bacteria)” value (“Activity G+” for short) in the data set with Gram-positive bacteria is “Y/Y”. Besides, the “Activity G− (activity against Gram-negative bacteria)” value (“Activity G−” below) with Gram-negative bacteria is given as “Y/Y”.

For “Temporin C: temporin, APD ID 96, SEQ ID NO: 21 (LLPILGNLLNGLL; listed as Rana temporaria)”, in the data set with Gram-positive bacteria, the “Activity G+” value is recorded as “Y”. Further, in the data set on Gram-negative bacteria, the “Activity G−” value is “N”. “GFLSILKKVLPKVMAHMK-NH2 [Melectin, reference compound]”: the “MICs (μM) EC” value in the data set with Escherichia coli K12 fell in the range of 12.5 to 25 µM. Also, the “MICs (μM) SA” value in data set [1] lay in the range of 12.5 to 25 µM. With “IWLTALKFLGKHAAKHLAKQQLSKL [Lycotoxin I, reference compound]”, the “HL50 (μM), concentration at which 50% red blood cells are lysed” value in the data set with human erythrocytes was 125 µM. Consider IKWKKLLRAAKRIL-NH2 [DASamP2], for which the “HL50 (μM), concentration at which 50% red blood cells are lysed” value with human erythrocytes is 75 µM. As to EKIGKEFKRIVQRIKDFLRN [EK-20], on chymotrypsin (setting [2]), the “Stability (to chymotrypsin)” value is “−”. Take “Temporin K: temporin, APD ID 100, SEQ ID NO: 20 (LLPNLLKSLL; listed as Rana temporaria)”: the “Activity G+” value in the data set with Gram-positive bacteria was “Y”. Besides, the “Activity G−” value with Gram-negative bacteria is “N”. Turning to “RPKHPIKHQGLPQEVLNENLLRF [Isracidin, reference compound]”, the “MICs (μM) EC” value in the data set on Escherichia coli K12 was over 100 µM. The “MICs (μM) SA” value in data set [1] was over 100 µM. Turning to “GLLGLLGSVVSHVVPAIVGHF-NH2 [Maculatin 1.3, reference compound]”, in the data set on human erythrocytes, the “HL50 (μM), concentration at which 50% red blood cells are lysed” value amounted to 25 µM. For the molecule “RQRVEELSKFSKKGAAARRRK [Misgurin, reference compound]”, the “MICs (μM) EC” value against Escherichia coli K12 was over 84 µM. Further, in data set [1], the “MICs (μM) SA” value is over 84 µM.

On to “Temporin-1Lb: temporin, APD ID 110, SEQ ID NO: 13 (NFLGTLINLAKKIM; listed as Rana luteiventris)”, for which the “Activity G+” value in the data set on Gram-positive bacteria is reported as “Y”. For the same molecule, in the data set with Gram-negative bacteria, the “Activity G−” value is “N”. For the molecule “GKPRPYSPRPTSHPRPIRV [Drosocin, reference compound]”, in the data set on Escherichia coli K12, the “MICs (μM) EC” value was over 100 µM. Also, in data set [1], the “MICs (μM) SA” value is over 100 µM. As to “Temporin A: temporin, APD ID 94, SEQ ID NO: 14 (FLPLIGRVLSGIL; listed as Rana temporaria)”, in the data set on Gram-positive bacteria, the “Activity G+” value is “Y”. In addition, the “Activity G−” value in the data set on Gram-negative bacteria was “N”.

Consider “Temporin G: temporin, APD ID 101, SEQ ID NO: 12 (FFPVIGRILNGIL; listed as Rana temporaria)”, for which the “Activity G+” value in the data set on Gram-positive bacteria was “Y/Y”. The “Activity G−” value in the data set on Gram-negative bacteria was “Y/Y”. “Temporin B: temporin, APD ID 95, SEQ ID NO: 19 (LLPIVGNLLKSLL; listed as Rana temporaria)”: in the data set on Gram-positive bacteria, the “Activity G+” value is given as “Y”. Moreover, in the data set with Gram-negative bacteria, the “Activity G−” value is reported as “N”. GFKRIVQRIKDFLRNL-NH2 [GF-16]: on chymotrypsin (setting [2]), the “Stability (to chymotrypsin)” value was “−”. Regarding “FFHHIFRGIVHVGKTIHRLVTG [Piscidin 1, reference compound]”, the “HL50 (μM), concentration at which 50% red blood cells are lysed” value with human erythrocytes came to 20 µM.

“HVDKKVADKVLLLKQLRIMRLLTRL [Spinigerin, reference compound]”: the “MICs (μM) EC” value in the data set on Escherichia coli K12 was over 81 µM. Also, the “MICs (μM) SA” value in data set [1] is over 81 µM. For KIGKEFKRIVQRIKDFLRNLVP [KI-22], the “Stability (to chymotrypsin)” value on chymotrypsin (setting [3]) and on chymotrypsin (setting [2]) was “−” each time.

With “GFKDLLKGAAKALVKTVLF-NH2 [Ascaphin-8, reference compound]”, in the data set on human erythrocytes, the “HL50 (μM), concentration at which 50% red blood cells are lysed” value was 45 µM. For “Temporin-SHf: temporin, APD ID 1534, SEQ ID NO: 10 (FFFLSRIF; listed as Pelophylax saharicus)”, the “Activity G+” value in the data set with Gram-positive bacteria is listed as “Y/Y”. Further, in the data set on Gram-negative bacteria, the “Activity G−” value is recorded as “Y/Y”. For the molecule “Temporin E: temporin, APD ID 97, SEQ ID NO: 16 (VLPIIGNLLNSLL; listed as Rana temporaria)”, the “Activity G+” value in the data set with Gram-positive bacteria is given as “Y”. For the same molecule, the “Activity G−” value in the data set on Gram-negative bacteria was “N”. In the case of GRFKRFRKKFKKLFKKLS-NH2 [BMAP-18], the “Stability (to chymotrypsin)” value at chymotrypsin (setting [2]) is listed as “−”.

As for FKRIVQRIKDFLRNLVPRTE [FK-21], the “Stability (to chymotrypsin)” value at chymotrypsin (setting [2]) is on record as “−”. As to GKEFKRIVQRIKDFLRNLVPR [GK-21], the “Stability (to chymotrypsin)” value on chymotrypsin (setting [3]) and at chymotrypsin (setting [2]) was “−” in each case. For FFGKVLKLIRKIF-NH2 [DASamP1], the “HL50 (μM), concentration at which 50% red blood cells are lysed” value with human erythrocytes turned out to be 25 µM. Turning to `CC[C@@H](C)[C@@H](NC(=O)[C@H](CCCNC(=N)N)NC(=O)[C@H](CCC(N)=O)NC(=O)[C@@H](NC(=O)[C@H](NC(=O)[C@H](CCCNC(=N)N)NC(=O)[C@H](CCCCN)NC(=O)[C@H](Cc1ccccc1)NC(=O)CN)[C@H](C)CC)C(C)C)C(=O)N[C@@H](CCCCN)C(=O)N[C@@H](CC(=O)O)C(=O)N[C@@H](Cc1ccccc1)C(=O)N[C@H](CC(C)C)C(=O)N[C@@H](CCCNC(=N)N)C(=O)N[C@@H](CC(N)=O)C(=O)N[C@@H](CC(C)C)C(=O)N[C@H](C(N)=O)C(C)C` [GF-17d3] (H-GFKR[dI]VQR[dI]KDF[dL]RNLV-NH2; N-terminus assumed), the “Stability (to chymotrypsin)” value on chymotrypsin (setting [3]) is reported as “+”; on chymotrypsin (setting [2]), “+^c”. Take “Temporin L: temporin, APD ID 99, SEQ ID NO: 11 (FVQWFSKFLGRIL; listed as Rana temporaria)”: the “Activity G+” value in the data set on Gram-positive bacteria is “Y/Y”. In addition, the “Activity G−” value in the data set on Gram-negative bacteria was “Y/Y”. Regarding GFKRIVQRIKDFLRNLV-NH2 [GF-17], the “Stability (to chymotrypsin)” value at chymotrypsin (setting [3]) and at chymotrypsin (setting [2]) was “−” throughout. Regarding “Temporin H: temporin, APD ID 859, SEQ ID NO: 17 (LSPNLLKSLL; listed as Rana temporaria)”, in the data set with Gram-positive bacteria, the “Activity G+” value is given as “Y”. In the data set on Gram-negative bacteria, the “Activity G−” value is “N”.
